Source: PMC9138994 (Biomolecules, 2022)
Values joined by “and” are separate entries in the source; they are usually repeats but may differ in a detail not shown here. Equal values may be shown once. Marks after values point to notes of the source that are not given here.

Experiments:
D3R = test system: D3R; parameters: method as in earlier work; settings: ref 19 (Vanover et al.); cited from earlier work
D1R = test system: D1R; parameters: method as in earlier work; settings: ref 19 (Vanover et al.); cited from earlier work
H1R = test system: H1R; parameters: method as in earlier work; settings: ref 19 (Vanover et al.); cited from earlier work
H3R = test system: H3R; parameters: method as in earlier work; settings: ref 19 (Vanover et al.); cited from earlier work
hH1R = molecular target: T1, hH1R (Homo sapiens, UniProt P35367); assay: [3H]-pyrilamine displacement assay at histamine H1R (CHO-K1 cells); type: binding; settings: CHO-K1 cells stably expressing human H1R; [3H]-pyrilamin; read-out: Ki (n), H1R
T1 construct: expressed in transfected cells; host or cells: CHO-K1
Procedure: To determine the human H1R affinity, compounds and reference substances were tested in a [^3H]-pyrilamine displacement assay. The assay was conducted with membrane preparations of CHO-K1 cells stably expressing hH1R. Transfection, cell culture, and membrane preparation were described in detail by Smit and colleagues. For the competition binding assay, membrane fractions (40 μg/well in a final volume of 0.2 mL binding buffer) were incubated with [^3H]-pyrilamine (1 nM) and the test compounds in different concentrations for 120 min at r.t. under shaking. The experimental assays were carried out in triplicate with at least six appropriate concentrations between 0.1 nM and 100 μM for the test compounds. Nonspecific binding was evaluated in the presence of the standard H1R antagonist chlorpheniramine hydrogen maleate at a concentration of 10 µM. The following steps were performed as described before.

[1] = molecular target: T2, human serotonin 5-HT2A receptor (Homo sapiens, UniProt P28223); assay: Radioligand displacement assay at 5-HT2A ([3H]-ketanserin, CHO-K1 cells); type: binding; settings: CHO-K1 cells expressing human 5-HT2A, read-out: Ki ± SD (n), 5-HT2A
T2 construct: host or cells: CHO-K1

human D2L = molecular target: T3, human D2L (Homo sapiens, UniProt P14416); assay: Radioligand displacement assay at dopamine D2R ([3H]-raclopride, HEK293 cells); type: binding; settings: HEK293 cells stably expressing human D2R, read-out: Ki ± SD (n), D2R
T3 construct: expressed in transfected cells; host or cells: HEK293

hH4R = molecular target: T4, hH4R (Homo sapiens, UniProt P04899+Q9H3N8); assay: [3H]-histamine competition binding assay at histamine H4R (Sf9 membranes); settings: Sf9 cell membranes expressing human H4R with Gαi2 and Gβ1γ2, read-out: Ki (n), H4R
T4 construct: expressed in transfected cells; host or cells: Sf9 insect cells
Procedure: To determine the human H4R affinity, compounds and reference structures were examined in a [^3H]-histamine dihydrochloride competition binding assay. Cell culture and membrane preparation of Sf9 cells co-expressing hH4R-Gαi2 fusion protein with Gβ1γ2 was prepared as described by Schneider and co-workers.
The competition binding assay has been performed as described previously by Sander, Kottke, and Schwed from the Stark Lab. Cell membranes were sedimented by 3 min centrifugation at 25 °C and […] and were resuspended in binding buffer. Competition binding experiments were carried out by incubating the membranes (40 µg/0.2 mL binding buffer) and [^3H]-histamine dihydrochloride (10 nM) with test compounds for 60 min at r.t. Assays were run in triplicates with four to seven appropriate concentrations between 0.1 nM and 100 µM for the test compound. Nonspecific binding was determined in the presence of 100 µM JNJ7777120. The following steps were performed as described before.

[2] = molecular target: T5, human histamine H3 receptor (Homo sapiens, UniProt Q9Y5N1); assay: Radioligand displacement assay at histamine H3 receptor ([3H]-Nα-methylhistamine, HEK293 membranes); type: binding; settings: HEK293 cells stably expressing human H3R, read-out: Ki [CI 95%] (n), H3R
T5 construct: expressed in transfected cells; host or cells: HEK293
Procedure: Radioligand displacement assays were performed as described previously. HEK293 cells stably expressing the human histamine H3 receptor [37] were grown in Dulbecco’s modified Eagle’s medium, supplemented with 2 mM glutamine, 10 mM HEPES, 10% fetal bovine serum, and 10 μL/mL penicillin/streptomycin in an atmosphere of 5% CO2 at 37 °C. Cells were grown to confluence. The medium was removed, and cells were collected in 15 mL ice-cold phosphate-buffered saline (PBS) (140 mM NaCl, 3 mM KCl, 1.5 mM KH2PO4, 8 mM Na2HPO4, pH 7.4). The cell suspension was centrifuged two times at 3000× g for 10 min with subsequent aspiration in 20 mL of PBS buffer at 4 °C. […]
Competition binding experiments were carried out as follows: membranes (20 μg/well in a final volume of 0.2 mL binding buffer) were incubated with [^3H]-N^α-methylhistamine (2 nM), purchased from PerkinElmer (Waltham, MA, USA), and different concentrations of the respective test ligand. […] Non-specific binding was determined in the presence of the selectively acting histamine H3 receptor inverse agonist/antagonist pitolisant (10 μM). […] Liquid scintillation counting using a PerkinElmer MicroBeta Trilux scintillation counter was used to determine the amount of radioactivity collected on the filter used in the current experiment. […]

hD3R = molecular target: T6, hD3R (Homo sapiens, UniProt P35462); assay: Radioligand displacement assay at dopamine D3R ([3H]-spiperone, CHO-K1 cells); type: binding; settings: CHO-K1 cells stably expressing human D3R, read-out: Ki (n), D3R
T6 construct: expressed in transfected cells; host or cells: CHO-K1
Procedure: To determine the human D3R affinity, compounds and reference substances were tested in a [^3H]-spiperone competition binding assay as described by Bautista-Aguilera et al.. The assay was conducted with membrane preparations of CHO-K1 cells stably expressing hD3R. Membrane fractions (20 μg/well in a final volume of 0.2 mL binding buffer) were incubated with [^3H]-spiperone (0.2 nM) and the test compounds for 120 min at r.t. under shaking. Assays were run in triplicates with at least six appropriate concentrations between 0.1 nM and 100 µM for the test compound. Nonspecific binding was determined in the presence of 10 µM haloperidol.

T5 sequence (Q9Y5N1 whole entry): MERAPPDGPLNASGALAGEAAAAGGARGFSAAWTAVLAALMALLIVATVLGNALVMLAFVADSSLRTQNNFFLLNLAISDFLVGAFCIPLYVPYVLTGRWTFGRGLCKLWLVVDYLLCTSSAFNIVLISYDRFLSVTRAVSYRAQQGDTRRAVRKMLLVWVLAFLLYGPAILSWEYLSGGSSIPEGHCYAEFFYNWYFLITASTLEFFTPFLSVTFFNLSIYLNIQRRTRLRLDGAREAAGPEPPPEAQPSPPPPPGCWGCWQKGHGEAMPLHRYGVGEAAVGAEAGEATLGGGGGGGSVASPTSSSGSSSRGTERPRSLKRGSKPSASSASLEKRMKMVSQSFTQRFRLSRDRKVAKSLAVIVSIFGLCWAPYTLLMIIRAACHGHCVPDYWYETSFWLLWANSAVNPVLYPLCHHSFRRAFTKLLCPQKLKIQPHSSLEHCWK
T4 sequence (Q9H3N8+P04899 fused): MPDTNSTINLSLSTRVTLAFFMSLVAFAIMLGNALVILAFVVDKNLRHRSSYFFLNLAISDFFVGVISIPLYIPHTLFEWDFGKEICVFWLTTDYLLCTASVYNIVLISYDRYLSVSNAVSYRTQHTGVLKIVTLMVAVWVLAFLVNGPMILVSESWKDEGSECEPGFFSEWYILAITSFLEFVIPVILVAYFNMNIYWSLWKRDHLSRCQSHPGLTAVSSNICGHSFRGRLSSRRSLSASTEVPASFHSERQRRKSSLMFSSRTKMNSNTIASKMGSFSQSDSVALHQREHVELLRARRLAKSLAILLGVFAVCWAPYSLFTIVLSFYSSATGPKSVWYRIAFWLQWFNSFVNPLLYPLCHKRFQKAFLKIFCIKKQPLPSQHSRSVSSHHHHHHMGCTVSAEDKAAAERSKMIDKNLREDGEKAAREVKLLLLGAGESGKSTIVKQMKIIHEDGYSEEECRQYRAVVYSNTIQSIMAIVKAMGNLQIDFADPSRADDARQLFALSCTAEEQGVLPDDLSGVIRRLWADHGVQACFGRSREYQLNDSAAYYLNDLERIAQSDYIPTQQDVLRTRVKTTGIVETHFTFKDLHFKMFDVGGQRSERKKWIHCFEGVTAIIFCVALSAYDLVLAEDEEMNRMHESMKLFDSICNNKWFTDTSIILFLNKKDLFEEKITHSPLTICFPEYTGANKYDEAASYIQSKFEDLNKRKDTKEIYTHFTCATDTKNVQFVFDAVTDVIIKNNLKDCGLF
T1 sequence (P35367 whole entry): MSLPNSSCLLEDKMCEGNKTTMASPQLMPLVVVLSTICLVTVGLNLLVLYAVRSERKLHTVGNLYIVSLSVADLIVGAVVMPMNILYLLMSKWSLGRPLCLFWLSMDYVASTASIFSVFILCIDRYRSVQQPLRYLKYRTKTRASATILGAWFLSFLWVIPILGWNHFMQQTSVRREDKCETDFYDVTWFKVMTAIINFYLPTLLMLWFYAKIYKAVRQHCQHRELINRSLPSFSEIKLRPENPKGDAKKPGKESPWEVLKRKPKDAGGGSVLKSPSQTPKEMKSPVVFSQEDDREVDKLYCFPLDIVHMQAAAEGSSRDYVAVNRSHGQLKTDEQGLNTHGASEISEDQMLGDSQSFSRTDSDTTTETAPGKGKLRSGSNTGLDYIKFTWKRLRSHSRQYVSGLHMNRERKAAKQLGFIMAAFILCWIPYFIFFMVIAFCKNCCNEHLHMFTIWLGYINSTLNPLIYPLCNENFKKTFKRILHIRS
T2 sequence (P28223 whole entry): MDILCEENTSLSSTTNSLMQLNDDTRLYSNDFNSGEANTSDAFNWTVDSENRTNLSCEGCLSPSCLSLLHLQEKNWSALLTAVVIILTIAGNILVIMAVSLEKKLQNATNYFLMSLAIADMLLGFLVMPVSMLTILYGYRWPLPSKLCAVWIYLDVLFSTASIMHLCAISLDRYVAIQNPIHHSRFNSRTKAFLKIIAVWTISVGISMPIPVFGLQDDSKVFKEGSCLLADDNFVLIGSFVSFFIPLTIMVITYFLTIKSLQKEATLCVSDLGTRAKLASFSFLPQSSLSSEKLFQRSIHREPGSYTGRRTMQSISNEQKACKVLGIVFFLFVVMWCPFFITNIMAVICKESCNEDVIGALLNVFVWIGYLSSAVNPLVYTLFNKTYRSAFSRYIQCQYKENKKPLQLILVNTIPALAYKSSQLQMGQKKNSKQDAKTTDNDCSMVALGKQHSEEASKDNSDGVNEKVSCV
T6 sequence (P35462 whole entry): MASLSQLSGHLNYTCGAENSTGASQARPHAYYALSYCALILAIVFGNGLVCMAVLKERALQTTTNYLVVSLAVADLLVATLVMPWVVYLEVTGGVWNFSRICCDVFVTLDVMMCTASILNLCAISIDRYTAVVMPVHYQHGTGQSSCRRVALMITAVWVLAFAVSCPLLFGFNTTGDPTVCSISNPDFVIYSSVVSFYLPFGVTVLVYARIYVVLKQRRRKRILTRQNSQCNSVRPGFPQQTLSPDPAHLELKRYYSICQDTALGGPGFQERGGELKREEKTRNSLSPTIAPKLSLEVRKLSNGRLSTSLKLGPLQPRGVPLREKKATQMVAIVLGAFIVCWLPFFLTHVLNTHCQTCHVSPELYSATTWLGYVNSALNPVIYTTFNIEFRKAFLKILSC
T3 sequence (P14416 whole entry): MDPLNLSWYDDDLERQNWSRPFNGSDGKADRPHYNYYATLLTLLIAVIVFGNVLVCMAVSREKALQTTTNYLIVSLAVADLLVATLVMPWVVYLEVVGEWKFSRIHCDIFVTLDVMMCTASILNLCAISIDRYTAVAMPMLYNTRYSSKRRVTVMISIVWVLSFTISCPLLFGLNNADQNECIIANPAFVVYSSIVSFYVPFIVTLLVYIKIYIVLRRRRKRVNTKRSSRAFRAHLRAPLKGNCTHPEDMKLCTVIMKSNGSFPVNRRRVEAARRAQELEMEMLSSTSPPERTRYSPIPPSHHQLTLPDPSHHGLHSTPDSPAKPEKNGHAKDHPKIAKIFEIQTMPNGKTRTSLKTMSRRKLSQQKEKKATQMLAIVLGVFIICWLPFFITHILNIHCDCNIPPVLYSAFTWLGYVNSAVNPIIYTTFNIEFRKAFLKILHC

| Compound | inhibition at 10 µM, D3R (D3R) | inhibition at 10 µM, D1R (D1R) | inhibition at 10 µM, H1R (H1R) | inhibition at 10 µM, H3R (H3R) | Ki (hH1R) [nM] | Ki [1] [nM] | Ki (human D2L) [nM] | Ki (hH4R) [nM] | Ki [2] | Ki (hD3R) [nM] |
| --- | --- | --- | --- | --- | --- | --- | --- | --- | --- | --- |
| CC(C)COc1ccc(CNC(=O)N(Cc2ccc(F)cc2)C2CCN(C)CC2)cc1 [Pimavanserin, reference compound] | inhibition at 10 µM: 60% ^a | inhibition at 10 µM: <50% ^a | inhibition at 10 µM: <50% ^a | inhibition at 10 µM: <50% ^a |  |  |  |  |  |  |
| CN1CCC(N(Cc2ccc(F)cc2)C(=O)NCc2ccc(OCCCN3CCCCC3)cc2)CC1 [ST-2300, 1-(4-Fluorobenzyl)-1-(1-methylpiperidin-4-yl)-3-{4-[3-(piperidin-1-yl)propoxy]benzyl}urea] |  |  |  |  | > 5000 | 1300 ± 331 | > 10000 | > 1000 | 14 nM and 14.4 nM | > 10000 |
